Results from US20260076372A1, “SPRAYABLE ANTIFUNGAL COMPOSITION FOR USE IN THE FIELD OF AGRICULTURE, AND ASSOCIATED METHOD AND USE” (GAIAGO, priority 2022, published 2026).

Legend:
Format in all cases: cell-based
Alternaria solani = assay: in vitro 96-well micro-titration test on Alternaria solani spores; conditions: for EC95 (%): A. solani, Table 22, ingredient alone in water
Plasmopara viticola = assay: in vitro antifungal action of single ingredients on Plasmopara viticola
Text: In Vitro Results Showing the Syngergistic Action of Yucca Juice with the Other Compounds of the Composition According to the Invention on A. solani, Z. tritici, and Plasmopara viticola,
The following tables show in vitro the synergistic antifungal action between yucca juice and the other compounds of the composition of the invention on various pathogens. The concentrations given are as a mass %. The solutions tested as aqueous solutions.
Mo denotes sodium molybdate, Bo denotes boron ethanolamine.

[1] = test system: Septoria tritici (Zymoseptoria tritici); assay: in vitro 96-well micro-titration test on Septoria tritici / Zymoseptoria tritici; conditions: for EC95 (%): Z. tritici, Table 23, ingredient alone in water
[2] = Concentration 0.05% mass of the stated aqueous solution

SMILES | EC95 (%) (Alternaria solani) | inhibition of A. solani, ingredient alone in water (Alternaria solani; [2]) | inhibition of A. solani, ingredient alone in water (Alternaria solani; Concentration 0.50%) | inhibition of A. solani, ingredient alone in water (Alternaria solani; Concentration 1.00%) | inhibition of A. solani, ingredient alone in water (Alternaria solani; Concentration 2.00%) | inhibition of A. solani, ingredient alone in water (Alternaria solani; Concentration 3.00%) | inhibition of A. solani, ingredient alone in water (Alternaria solani; Concentration 6.00%) | inhibition of A. solani, ingredient alone in water (Alternaria solani; Concentration 10.00%) | in vitro activity against Plasmopara viticola, ingredient alone in water (Plasmopara viticola; Concentration 0.05%) | in vitro activity against Plasmopara viticola, ingredient alone in water (Plasmopara viticola; Concentration 0.50%) | in vitro activity against Plasmopara viticola, ingredient alone in water (Plasmopara viticola; Concentration 1.00%) | in vitro activity against Plasmopara viticola, ingredient alone in water (Plasmopara viticola; Concentration 2.00%) | in vitro activity against Plasmopara viticola, ingredient alone in water (Plasmopara viticola; Concentration 3.00%) | in vitro activity against Plasmopara viticola, ingredient alone in water (Plasmopara viticola; Concentration 6.00%) | in vitro activity against Plasmopara viticola, ingredient alone in water (Plasmopara viticola; Concentration 10.00%) | inhibition of Z. tritici, ingredient alone in water ([1]; Concentration 0.05%) | inhibition of Z. tritici, ingredient alone in water ([1]; Concentration 0.50%) | inhibition of Z. tritici, ingredient alone in water ([1]; Concentration 1.00%) | inhibition of Z. tritici, ingredient alone in water ([1]; Concentration 2.00%) | inhibition of Z. tritici, ingredient alone in water ([1]; Concentration 3.00%) | also measured
O=S(=O)([O-])[O-].[Mn+2] [Mn 3.7%] | >10% | −2.3% | 0.0% | 12.8% | 15.1% | 17.6% | 38.8% | 48.4% | 31.02% | 87.05% | 94.13% | 97.24% | 97.70% | 97.72% | 97.79% | 12.9% | 13.8% | 12.9% | 18.6% | 20.0% | inhibition of Z. tritici, ingredient alone in water ([1]; Concentration 6.00%): 17.0%; inhibition of Z. tritici, ingredient alone in water ([1]; Concentration 10.00%): 23.1%; EC95 (%) [1]: >10%
O=S(=O)([O-])[O-].[Mn+2] [Mn 7%] | 6.4% | 0.0% | 16.9% | 29.6% | 73.2% | 89.4% | 94.5% | 101.1% | 25.41% | 89.41% | 94.78% | 97.25% | 97.53% | 97.69% | 97.64% | 11.3% | 27.6% | 33.5% | 28.7% | 28.0% | inhibition of Z. tritici, ingredient alone in water ([1]; Concentration 6.00%): 29.0%; inhibition of Z. tritici, ingredient alone in water ([1]; Concentration 10.00%): 29.5%; EC95 (%) [1]: >10%
[Na+].[Na+].[O]=[Mo](=[O])([O-])[O-] [Mo 0.01%, sodium molybdate] | >10% | 2.2% | −1.2% | −7.4% | −1.3% | −1.8% | −1.5% | −0.4% | 15.33% | 46.43% | 53.15% | 72.42% | 74.22% | 74.22% | 96.02% | −1.7% | −1.1% | −2.3% | −2.2% | −1.8% | inhibition of Z. tritici, ingredient alone in water ([1]; Concentration 6.00%): −1.6%; inhibition of Z. tritici, ingredient alone in water ([1]; Concentration 10.00%): −2.2%; EC95 (%) [1]: >10%
O=S(=O)([O-])[O-].[Zn+2] [Zn 7%] | >10% | −1.4% | 6.3% | 16.6% | 32.1% | 37.2% | 49.7% | 59.1% | 7.02% | 50.25% | 65.51% | 99.08% | 99.29% | 98.93% | 99.08% | −4.9% | 28.1% | 39.8% | 44.1% | 47.4% | inhibition of Z. tritici, ingredient alone in water ([1]; Concentration 6.00%): 65.0%; inhibition of Z. tritici, ingredient alone in water ([1]; Concentration 10.00%): 77.2%; EC95 (%) [1]: >10%
